Where two headings read alike, the source gives them in different places.
Columns and labels:
M2 receptor = target: T1, M2 receptor (Homo sapiens, UniProt P08172); test: BRET real-time monitoring of G-protein activation via M2 in HEK293T/17 cells; type: cell-based; design: expressed in transfected cells; host or cells: HEK293T/17 cells, transient transfection; conditions: for Activation of Gαi/o and Gα15 types: saturating concentration (100 μM; 1 mM for JB-12-2, JB-13-1)
T1 sequence (P08172 1-466): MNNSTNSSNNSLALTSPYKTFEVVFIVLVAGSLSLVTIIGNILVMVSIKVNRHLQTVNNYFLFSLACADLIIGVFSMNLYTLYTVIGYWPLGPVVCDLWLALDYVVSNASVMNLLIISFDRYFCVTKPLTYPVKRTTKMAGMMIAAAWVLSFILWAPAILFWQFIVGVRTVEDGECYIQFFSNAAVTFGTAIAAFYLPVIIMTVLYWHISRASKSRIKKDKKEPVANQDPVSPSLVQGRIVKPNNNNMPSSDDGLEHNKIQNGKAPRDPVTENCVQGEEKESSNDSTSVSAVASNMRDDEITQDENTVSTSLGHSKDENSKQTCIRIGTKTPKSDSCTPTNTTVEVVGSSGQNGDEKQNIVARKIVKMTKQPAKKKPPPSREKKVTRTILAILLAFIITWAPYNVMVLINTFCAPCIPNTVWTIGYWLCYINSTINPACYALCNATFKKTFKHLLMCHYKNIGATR
Method: HE/K293T17 cells were obtained from The Global Bioresource Center ATCC (Manassas, VA, USA). Cells were grown in 100 mm petri dishes in Dulbecco’s modified Eagle’s medium (DMEM) supplemented with 10% fetal bovine serum (FBS), MEM non-essential amino acids, 1 mM sodium pyruvate, and antibiotics (100 units/ml penicillin and 100 μg/ml streptomycin) at 37 °C in a humidified incubator containing 5% CO2[41]. Transfection was performed according to Masuho et al.[41]. Culture dishes (3.5 cm) were coated by incubation for 10 min at 37 °C with 1 ml of Matrigel solution [approximately 10 μg/ml of growth factor-reduced Matrigel (BD biosciences; LOT: 2278001) in culture medium]. For transfections, cells were seeded in the 3.5 cm dishes containing the Matrigel solution at a density of 1.7 × 10^6 cells/dish. Four hours later, the cells were transfected with the appropriate expression constructs (total of 5 μg DNA per dish) with the reagents PLUS (5 μl/dish) and Lipofectamine LTX (Thermo Fisher Scientific; LOT: 2640614) (6 μl/dish). The cells were transfected with the Venus 156-239-Gβ1 (0.21 μg), Venus 1–155-Gγ2 (0.21 μg), and masGRK3ct-Nluc (0.21 μg) constructs in addition to the different amounts of constructs for the M2 receptor and Gα of interest. Gα14 subunit was co-transfected with Ric-8A chaperone (0.21 μg). Cells were cotransfected with a pcDNA3.1 construct encoding the catalytic subunit of pertussis toxin (PTX-S1) (0.21 μg) and constructs encoding Gα15, Gα14, Gα11, Gαq to ensure that the small BRET signals were not contaminated by the possible recruitment of endogenous Gαi/o proteins. The empty vector pcDNA3.1 was used to normalize the amount of DNA in each transfection.
To examine the activation of G-protein signalling in live cells, agonist-dependent cellular measurements of BRET between Venus-Gβ1γ2 and masGRK3ct-Nluc were performed as described by Masuho et al.[41]. […]. Cells were harvested by centrifugation at 500×g for 5 min and were resuspended in BRET buffer. About 50,000 to 100,000 cells per well were distributed in 96-well flat-bottomed white microplates (Greiner Bio-One) in a volume of 25 µl. 25 µl of 2× luciferase substrate: Nano-Glo™ luciferase assay substrate (Promega; LOT: 0000527335) dissolved in 250 volumes of BRET buffer was added. BRET measurements were made with a microplate reader (POLARstar Omega, BMG Labtech) equipped with two emission photomultiplier tubes, which enabled the detection of two emissions simultaneously with the highest possible resolution of 20 ms per data point. All measurements were performed at room temperature. The BRET signal was determined by calculating the ratio of the light emitted by Venus-Gβ1γ2 (535 nm with a 30 nm band path width) to the light emitted by masGRK3ct-Nluc (475 nm with a 30 nm band path width). The average baseline value (basal BRET ratio) recorded before stimulation of cells with an agonist was subtracted from the experimental BRET signal values to obtain the ΔBRET ratio.
The ΔBRET ratio from real-time monitoring of G-protein activation was fitted using monophasic association according to Eq. 9.9 Y=Beq×(1-exp-Kobs×x where y is the ΔBRET ratio of the light emitted by Venus-Gβ1γ2 (535/30) to the light emitted by masGRK3ct-Nluc (475/30). Beq is Y-value at the equilibrium expressing the maximal amplitude of ΔBRET ratio, x is time and Kobs is the observed rate of Gα subunit activation.

M3 muscarinic receptor = target: T2, M3 muscarinic receptor (Homo sapiens, UniProt P20309); test: [3H]NMS competition binding, membranes from CHO cells expressing M3; conditions: competition with [3H]NMS, mean ± SD, three experiments, read-out: Binding affinity, negative logarithm of Ki (converted)
T2 construct: membranes
Method: (§1) Cells were cultured as described previously by Randakova et al.[33]. […] The medium was supplemented with 5 mM butyrate for the last 24 h of culture to increase receptor expression. Cells were washed with (phosphate-buffered saline (PBS), mechanically harvested by scraper and centrifugated 1000 × g for 5 min. Cell pellets were kept at − 80 °C.
(§2) Membranes were prepared as described previously by Randakova et al.[33]. Cells harvested from twenty 100 mm petri dishes (CHO) or 30 ml of cell suspension (Sf9) were suspended in 20 ml of ice-cold incubation medium (100 mM NaCl, 20 mM Na-HEPES, 10 mM MgCl2, pH 7.4) supplemented with 10 mM EDTA and homogenized on ice by two 30‐s strokes using a Polytron homogenizer (Ultra-Turrax; Janke & Kunkel GmbH & Co. KG, IKA-Labortechnik, Staufen, Germany) with a 30 s pause between strokes. Cell homogenates were centrifuged for 5 min at 1000×g to remove whole cells and cell nuclei. The resulting supernatants were centrifuged for 30 min at 30,000×g. Pellets were suspended in a fresh incubation medium, incubated on ice for 30 min, and centrifuged again. The resulting membrane pellets were kept at − 80 °C until assayed within 10 weeks.
(§3) Non-specific binding was determined in the presence of 10 μM unlabelled atropine. Incubations were terminated by filtration through filtration plates multiscreen 96 well Harvest (Merck Millipore) using a Brandel cell harvester (Brandel, Gaithersburg, MD, USA). Filtration plates were dried in a microwave oven, and then 40 μl of liquid scintillator Rotiscint eco plus (Roth) was added. The filtration plates were counted in the Microbeta scintillation counter (PerkinElmer). […] The inhibition constant KI was calculated according to Eq. (2).
(§4) Inhibition constants KI were calculated according to Eq. (2).2 KI=IC50/1+D/KD where IC50 is calculated according to Eq.

M2 muscarinic receptor = target: T3, M2 muscarinic receptor (Homo sapiens, UniProt P08172); test: [3H]NMS competition binding, membranes from CHO cells expressing M2
T3 construct: membranes
T3 sequence (P08172 1-466): T1 sequence (P08172 1-466)
Method: as §1, §2, §3, §4

T2 sequence (P20309 whole entry): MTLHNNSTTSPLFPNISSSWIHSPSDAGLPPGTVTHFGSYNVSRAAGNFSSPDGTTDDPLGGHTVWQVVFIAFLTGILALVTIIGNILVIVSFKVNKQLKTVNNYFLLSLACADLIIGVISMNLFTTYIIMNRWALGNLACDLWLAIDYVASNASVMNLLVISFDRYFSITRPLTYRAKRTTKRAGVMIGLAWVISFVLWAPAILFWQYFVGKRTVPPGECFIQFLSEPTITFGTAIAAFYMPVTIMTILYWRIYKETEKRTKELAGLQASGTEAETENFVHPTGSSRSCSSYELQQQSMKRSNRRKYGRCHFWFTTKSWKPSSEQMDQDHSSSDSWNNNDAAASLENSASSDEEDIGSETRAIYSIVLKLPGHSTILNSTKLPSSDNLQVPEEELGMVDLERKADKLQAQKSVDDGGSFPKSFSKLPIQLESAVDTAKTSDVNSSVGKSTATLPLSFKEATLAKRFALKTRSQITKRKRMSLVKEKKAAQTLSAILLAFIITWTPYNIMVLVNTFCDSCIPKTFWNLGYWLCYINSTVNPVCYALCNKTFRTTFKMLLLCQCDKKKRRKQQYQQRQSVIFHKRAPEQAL

SMILES	Maximal amplitude at Gi1 as % of GoA (M2 receptor; CBC 100 μM)	Activation of Gαi/o and Gα15 types (M2 receptor)	Ki (M3 muscarinic receptor) [µM]	Ki (M2 muscarinic receptor) [µM]	Activation of GoA and GoB, % of CBC magnitude (M2 receptor; saturating concentration (JR-6 100 μM, JB-12-2 1 mM))	Ki (M2 muscarinic receptor; M2, competition with [3H]NMS, mean ± SD, three experiments, read-out: Binding affinity, negative logarithm of Ki (converted)) [µM]	Experimental binding affinity relative to JR-6 (M2 muscarinic receptor; M2 (Table 1))
C[N+](C)(C)CCOC(N)=O [CBC, carbachol, reference compound]	~ 25%	activated all tested Gαi/o types and promiscuous Gα15	–	–	–	–	–
c1csc(C[N+]23CCC(CC2)CC3)c1 [JB-8A]	–	did not detect	14.8	3.24	–	–	–
C[N+]1(Cc2cccs2)CCOCC1 [JB-12-2]	–	–	93.3	17.4	approximately 12%	–	–
COC(=O)C1=CCCN(Cc2cccs2)C1 [JB-13-1]	–	activated only GαoA	355	–	–	23.4	–
C[N+]1(Cc2ccc(Cl)s2)CC=CCC1 (stereo not shown) [PN-152, 1-[(5-chlorothiophen-2-yl)methyl]-1-methyl-1,2,3,6-tetrahydropyridin-1-ium]	–	did not detect	–	–	–	–	ten-times higher
